Source: US10479780B2, “Aminopyrazole derivatives” (Chugai Seiyaku Kabushiki Kaisha, priority 2015, dated 2019)

How the values were obtained:
Type in all cases: biochemical
[1] = target: T1, human Lck enzyme (Homo sapiens, UniProt P06239); assay: Lck enzyme inhibitory activity (time-resolved fluorometry, biotinylated peptide phosphorylation); conditions: biotinylated peptide phosphorylation, read-out: LCK_IC50
T1 construct: purchased Carna Biosciences, Inc. 08-170
In short: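 Readout pairs a europium cryptate-labelled anti-phosphotyrosine antibody with XL665-streptavidin, measured by time-resolved fluorescence. IC50 derived from percent inhibition against untreated controls.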

[2] = target: T2, human Yes1 enzyme (Homo sapiens, UniProt P07947); assay: Yes1 enzyme inhibitory activity (time-resolved fluorometry, biotinylated peptide phosphorylation); conditions: biotinylated peptide phosphorylation, read-out: YES_IC50
T2 construct: made in house
In short: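 Inhibition was expressed against a compound-free control to give IC50, using TR-FRET read-out (Eu-cryptate anti-pTyr antibody, streptavidin-XL665).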

[3] = target: T3, human Src enzyme (Homo sapiens, UniProt P12931); assay: Src enzyme inhibitory activity (time-resolved fluorometry, biotinylated peptide phosphorylation); conditions: biotinylated peptide phosphorylation, read-out: SRC_IC50
T3 construct: purchased Carna Biosciences, Inc. 08-173
In short: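 Compounds were tested for blocking tyrosine phosphorylation of a biotinylated peptide substrate by recombinant human Src. Phosphorylated product was quantified by time-resolved fluorometry using europium cryptate and XL665 conjugates, and IC50 was calculated against the compound-free control.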

T3 sequence (P12931 whole entry): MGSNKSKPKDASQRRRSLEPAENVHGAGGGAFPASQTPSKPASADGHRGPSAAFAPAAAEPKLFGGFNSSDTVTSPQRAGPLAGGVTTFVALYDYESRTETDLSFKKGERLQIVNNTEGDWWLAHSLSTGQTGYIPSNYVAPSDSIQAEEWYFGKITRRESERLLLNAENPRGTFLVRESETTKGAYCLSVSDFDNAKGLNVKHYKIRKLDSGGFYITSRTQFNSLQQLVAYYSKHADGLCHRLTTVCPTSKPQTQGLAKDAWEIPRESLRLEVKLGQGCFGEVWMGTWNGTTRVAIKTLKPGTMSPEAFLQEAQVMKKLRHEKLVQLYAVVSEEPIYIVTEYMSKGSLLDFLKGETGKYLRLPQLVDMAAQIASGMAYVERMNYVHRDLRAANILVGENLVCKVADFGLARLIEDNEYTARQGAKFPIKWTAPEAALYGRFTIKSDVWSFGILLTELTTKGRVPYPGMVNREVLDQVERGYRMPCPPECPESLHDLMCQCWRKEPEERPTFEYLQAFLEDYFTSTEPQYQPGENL
T1 sequence (P06239 whole entry): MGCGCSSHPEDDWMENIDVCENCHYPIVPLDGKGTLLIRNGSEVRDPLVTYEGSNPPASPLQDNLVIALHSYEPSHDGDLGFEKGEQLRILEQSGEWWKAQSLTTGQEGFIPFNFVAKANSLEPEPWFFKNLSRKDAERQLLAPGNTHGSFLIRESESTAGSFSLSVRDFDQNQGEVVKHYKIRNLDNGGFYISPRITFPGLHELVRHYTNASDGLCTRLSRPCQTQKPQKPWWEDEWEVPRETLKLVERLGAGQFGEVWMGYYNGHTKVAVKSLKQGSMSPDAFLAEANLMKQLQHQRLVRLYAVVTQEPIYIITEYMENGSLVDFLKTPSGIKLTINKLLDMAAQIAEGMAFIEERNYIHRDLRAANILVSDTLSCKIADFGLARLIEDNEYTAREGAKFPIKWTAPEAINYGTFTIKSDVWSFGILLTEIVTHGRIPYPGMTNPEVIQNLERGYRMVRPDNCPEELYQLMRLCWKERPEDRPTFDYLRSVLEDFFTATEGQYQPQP
T2 sequence (P07947 whole entry): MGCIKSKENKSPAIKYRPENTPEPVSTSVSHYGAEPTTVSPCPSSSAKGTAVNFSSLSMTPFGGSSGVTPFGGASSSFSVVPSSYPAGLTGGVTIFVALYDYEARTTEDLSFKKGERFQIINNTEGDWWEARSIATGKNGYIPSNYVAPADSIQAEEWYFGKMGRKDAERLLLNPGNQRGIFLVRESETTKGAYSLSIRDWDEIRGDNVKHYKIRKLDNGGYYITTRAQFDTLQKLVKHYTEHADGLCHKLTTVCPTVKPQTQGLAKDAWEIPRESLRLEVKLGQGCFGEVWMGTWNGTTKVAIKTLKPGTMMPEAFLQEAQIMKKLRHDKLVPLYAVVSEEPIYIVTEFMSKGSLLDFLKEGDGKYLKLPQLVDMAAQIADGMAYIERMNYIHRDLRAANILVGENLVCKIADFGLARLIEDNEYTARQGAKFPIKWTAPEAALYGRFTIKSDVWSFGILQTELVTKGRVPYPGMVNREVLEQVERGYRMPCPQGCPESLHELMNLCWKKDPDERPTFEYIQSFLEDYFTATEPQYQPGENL

IC50 [1]	IC50 [2]	IC50 [3]	SMILES
5.7 nM	0.89 nM	19 nM	Cc1cc(Oc2ccccc2F)cc(F)c1-n1ncc(C(=O)c2cc3cc(NS(C)(=O)=O)c(Cl)cc3[nH]2)c1N [Example 4-2-093, N-[2-[5-amino-1-[2-fluoro-4-(2-fluorophenoxy)-6-methylphenyl]pyrazole-4-carbonyl]-6-chloro-1H-indol-5-yl]methanesulfonamide]
8.2 nM	2 nM	33 nM	Cc1cc(Oc2cccc(F)c2F)cc(F)c1-n1ncc(C(=O)c2cc3cc(NS(C)(=O)=O)c(Cl)cc3[nH]2)c1N [Example 4-2-094, N-[2-[5-amino-1-[4-(2,3-difluorophenoxy)-2-fluoro-6-methylphenyl]pyrazole-4-carbonyl]-6-chloro-1H-indol-5-yl]methanesulfonamide]
5.3 nM	0.85 nM	14 nM	Cc1cc(Oc2ccccc2)cc(F)c1-n1ncc(C(=O)c2cc3cc(NS(C)(=O)=O)c(Cl)cc3[nH]2)c1N [Example 4-2-095, N-[2-[5-amino-1-(2-fluoro-6-methyl-4-phenoxyphenyl)pyrazole-4-carbonyl]-6-chloro-1H-indol-5-yl]methanesulfonamide]
2.6 nM	0.38 nM	9.5 nM	Cc1cc(Oc2ccccc2F)ncc1-n1ncc(C(=O)c2cc3cc(NS(C)(=O)=O)c(Cl)cc3[nH]2)c1N [Example 4-2-096, N-[2-[5-amino-1-[6-(2-fluorophenoxy)-4-methylpyridin-3-yl]pyrazole-4-carbonyl]-6-chloro-1H-indol-5-yl]methanesulfonamide]
1.8 nM	0.28 nM	8.1 nM	Cc1cc(Oc2ccccc2F)ccc1-n1ncc(C(=O)c2cc3cc(NS(C)(=O)=O)c(F)cc3[nH]2)c1N [Example 4-2-097, N-[2-[5-amino-1-[4-(2-fluorophenoxy)-2-methylphenyl]pyrazole-4-carbonyl]-6-fluoro-1H-indol-5-yl]methanesulfonamide]
2.5 nM	0.39 nM	15 nM	Cc1cc(Oc2cccc(F)c2F)ccc1-n1ncc(C(=O)c2cc3cc(NS(C)(=O)=O)c(F)cc3[nH]2)c1N [Example 4-2-098, N-[2-[5-amino-1-[4-(2,3-difluorophenoxy)-2-methylphenyl]pyrazole-4-carbonyl]-6-fluoro-1H-indol-5-yl]methanesulfonamide]
2.8 nM	0.61 nM	15 nM	Cc1cc(Oc2ccccc2F)cc(F)c1-n1ncc(C(=O)c2cc3cc(NS(C)(=O)=O)c(F)cc3[nH]2)c1N [Example 4-2-099, N-[2-[5-amino-1-[2-fluoro-4-(2-fluorophenoxy)-6-methylphenyl]pyrazole-4-carbonyl]-6-fluoro-1H-indol-5-yl]methanesulfonamide]
2.1 nM	0.73 nM	27 nM	Cc1cc(Oc2cccc(F)c2F)cc(F)c1-n1ncc(C(=O)c2cc3cc(NS(C)(=O)=O)c(F)cc3[nH]2)c1N [Example 4-2-100, N-[2-[5-amino-1-[4-(2,3-difluorophenoxy)-2-fluoro-6-methylphenyl]pyrazole-4-carbonyl]-6-fluoro-1H-indol-5-yl]methanesulfonamide]
2.9 nM	0.74 nM	50 nM	Cc1cc(Oc2cc(F)ccc2F)cc(F)c1-n1ncc(C(=O)c2cc3cc(NS(C)(=O)=O)c(F)cc3[nH]2)c1N [Example 4-2-101, N-[2-[5-amino-1-[4-(2,5-difluorophenoxy)-2-fluoro-6-methylphenyl]pyrazole-4-carbonyl]-6-fluoro-1H-indol-5-yl]methanesulfonamide]
3.9 nM	0.89 nM	48 nM	Cc1cc(Oc2ccccc2Cl)cc(F)c1-n1ncc(C(=O)c2cc3cc(NS(C)(=O)=O)c(F)cc3[nH]2)c1N [Example 4-2-102, N-[2-[5-amino-1-[4-(2-chlorophenoxy)-2-fluoro-6-methylphenyl]pyrazole-4-carbonyl]-6-fluoro-1H-indol-5-yl]methanesulfonamide]
0.97 nM	0.41 nM	7 nM	Cc1cc(Oc2ccccc2)cc(F)c1-n1ncc(C(=O)c2cc3cc(NS(C)(=O)=O)c(F)cc3[nH]2)c1N [Example 4-2-103, N-[2-[5-amino-1-(2-fluoro-6-methyl-4-phenoxyphenyl)pyrazole-4-carbonyl]-6-fluoro-1H-indol-5-yl]methanesulfonamide]
1.9 nM	0.56 nM	22 nM	Cc1cc(Oc2ccccc2F)ncc1-n1ncc(C(=O)c2cc3cc(NS(C)(=O)=O)c(F)cc3[nH]2)c1N [Example 4-2-104, N-[2-[5-amino-1-[6-(2-fluorophenoxy)-4-methylpyridin-3-yl]pyrazole-4-carbonyl]-6-fluoro-1H-indol-5-yl]methanesulfonamide]
24 nM	0.36 nM	100 nM	Cc1cc2cc(C(=O)c3cnn(-c4ccc(Oc5ccccc5F)cc4C)c3N)[nH]c2cc1NS(=O)(=O)N1CCOCC1 [Example 4-2-105, N-[2-[5-amino-1-[4-(2-fluorophenoxy)-2-methylphenyl]pyrazole-4-carbonyl]-5-methyl-1H-indol-6-yl]morpholine-4-sulfonamide]
51 nM	1.4 nM	180 nM	Cc1cc2cc(C(=O)c3cnn(-c4ccc(Oc5cccc(F)c5F)cc4C)c3N)[nH]c2cc1NS(=O)(=O)N1CCOCC1 [Example 4-2-106, N-[2-[5-amino-1-[4-(2,3-difluorophenoxy)-2-methylphenyl]pyrazole-4-carbonyl]-5-methyl-1H-indol-6-yl]morpholine-4-sulfonamide]
89 nM	2.4 nM	250 nM	Cc1cc2cc(C(=O)c3cnn(-c4c(C)cc(Oc5ccccc5F)cc4F)c3N)[nH]c2cc1NS(=O)(=O)N1CCOCC1 [Example 4-2-107, N-[2-[5-amino-1-[2-fluoro-4-(2-fluorophenoxy)-6-methylphenyl]pyrazole-4-carbonyl]-5-methyl-1H-indol-6-yl]morpholine-4-sulfonamide]
31 nM	1 nM	94 nM	Cc1cc2cc(C(=O)c3cnn(-c4cnc(Oc5ccccc5F)cc4C)c3N)[nH]c2cc1NS(=O)(=O)N1CCOCC1 [Example 4-2-108, N-[2-[5-amino-1-[6-(2-fluorophenoxy)-4-methylpyridin-3-yl]pyrazole-4-carbonyl]-5-methyl-1H-indol-6-yl]morpholine-4-sulfonamide]
45 nM	1.9 nM	210 nM	Cc1cc2cc(C(=O)c3cnn(-c4cnc(Oc5c(F)cccc5F)cc4C)c3N)[nH]c2cc1NS(=O)(=O)N1CCOCC1 [Example 4-2-109, N-[2-[5-amino-1-[6-(2,6-difluorophenoxy)-4-methylpyridin-3-yl]pyrazole-4-carbonyl]-5-methyl-1H-indol-6-yl]morpholine-4-sulfonamide]
110 nM	8.7 nM	250 nM	Cc1cc2cc(C(=O)c3cnn(-c4cnc(Oc5ccccc5Cl)cc4C)c3N)[nH]c2cc1NS(=O)(=O)N1CCOCC1 [Example 4-2-110, N-[2-[5-amino-1-[6-(2-chlorophenoxy)-4-methylpyridin-3-yl]pyrazole-4-carbonyl]-5-methyl-1H-indol-6-yl]morpholine-4-sulfonamide]
